Experiments:
[1] = system: Naïve CD4+ Foxp3/GFP− cells; assay: Two-phase induction/expansion of iTregs, Method 1 (anti-CD3/anti-CD28 plus inhibitor, then rIL-2); type: cell-based, mouse
iTreg cells = assay: Stability of Foxp3 expression of induced iTregs after re-stimulation with anti-CD3/anti-CD28 mAbs; type: cell-based, mouse; conditions: after repeated re-stimulation with anti-CD3/anti-CD28 mAbs; nTreg cells 80%
Method: FIGS. 4A-4B. Stability of Foxp3 expression and suppressor function of the two-phase induced iTreg T cells. The nTreg cells were isolated from spleen of naïve mice (left panel). Naïve mouse CD4^+Foxp3/GFP^− cells (1×10^6/ml) cultured with APCs were stimulated with anti-CD3 mAb in the presence of 5 ng/ml TGF-β, 5 μg/ml anti-IL-2 mAb (S4B6), or 100 nM CP-690,550 for 3 days. After washing, fresh medium was supplemented with 10 units/ml rIL-2 and cultured for additional 3 days (total 6 day culture). All these 4 populations were subsequently re-stimulated with anti-CD3 mAb/anti-CD28 mAb for 3 days and examined by FACscan for Foxp3 expression (FIG. 4A). Purified naive CD4^+Foxp3/GFP^− cells labeled with CFSE were used as T-effector (Teff) cells and mixed with re-stimulated nTreg cells or re-stimulated CP-690,550-induced iTreg cells. Proliferation was measured by the number of Teff cell divisions (FIG. 4B).
Furthermore, the stability of Foxp3 expression of anti-IL-2 mAb-(S4B6) or Jak3 inhibitor (CP-690,550)-induced iTregs was compared with TGF-β-induced iTregs.

T effector (Teff) cells = conditions: Teff:Treg 1:1, after repeated re-stimulation
transplant patients = conditions: compared with OKT3 mAb; cited from earlier work

C[C@@H]1CCN(C(=O)CC#N)C[C@@H]1N(C)c1ncnc2[nH]ccc12 [CP-690,550]
Foxp3 expression during proliferation (cell divisions) ([1]; 6-day culture): maintained similar levels of Foxp3 expression | number of CD4+CD25+Foxp3/GFP+ cells on day 6 of culture ([1]; from initial 0.05×10^6 CD4+ Foxp3/GFP− cells): 0.4×10^6 cells | expansion in the number of iTreg cells ([1]; initial 3-day exposure, day 6 of culture): 8 fold | induced iTreg cells that maintained Foxp3 expression (iTreg cells): 75% | suppressor function of induced iTreg cells (T effector (Teff) cells): maintained very potent suppressor function

O=C(N/N=C/c1coc2ccccc2c1=O)c1cccnc1 [Stat5 inhibitor]
naïve CD4+ Foxp3/GFP− cells converted into CD4+CD25+Foxp3/GFP+ iTregs ([1]; 100 ng/ml Stat5 inhibitor first 3 days, then rIL-2 3 days, untreated controls 7%): 36%

OKT3 mAb: mouse anti-human CD3 agonist mAb
adverse effects in patients (transplant patients): elicited the release of many cytokines causing flu-like symptoms

TGF-β
induced iTreg cells that maintained Foxp3 expression (iTreg cells): 4.3%
